The test addresses hPAD4 (Homo sapiens, UniProt Q9UM07). Description: hPAD4 RFMS (RapidFire mass spectrometry) PAD4 inhibition assay.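 On hPAD4 RFMS pIC50: grade E means pIC50 at most 4 and F means pIC50 4.0 to 5.0.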 Type of test: biochemical. To be noted: hPAD4 enzyme, RFMS readout. As to the method:
Compounds of the present invention were assayed as inhibitors of PAD4 using the assay protocol described below.
Compound stock solutions were stored at RT. […] Final assay conditions were as follows:
Total incubation time: 65 mins at 37° C.
Stop solution: 40 μl 5% TCA in ACN
The compound numbers correspond to the compound numbers in Table 1. […] The term pIC50=−log(IC50). […] “NA” stands for “not assayed.”

The mark [1] stands for this setting: pIC50=−log(IC50), read-out: hPAD4 RFMS pIC50 (converted).

The values that follow come from patent publication US9963448B2, “Bicyclic inhibitors of PAD4” (Padlock Therapeutics, Inc., priority 2015, dated 2018).

Where two headings read alike, the source gives them in different places.

hPAD4, sequence (Q9UM07 whole entry): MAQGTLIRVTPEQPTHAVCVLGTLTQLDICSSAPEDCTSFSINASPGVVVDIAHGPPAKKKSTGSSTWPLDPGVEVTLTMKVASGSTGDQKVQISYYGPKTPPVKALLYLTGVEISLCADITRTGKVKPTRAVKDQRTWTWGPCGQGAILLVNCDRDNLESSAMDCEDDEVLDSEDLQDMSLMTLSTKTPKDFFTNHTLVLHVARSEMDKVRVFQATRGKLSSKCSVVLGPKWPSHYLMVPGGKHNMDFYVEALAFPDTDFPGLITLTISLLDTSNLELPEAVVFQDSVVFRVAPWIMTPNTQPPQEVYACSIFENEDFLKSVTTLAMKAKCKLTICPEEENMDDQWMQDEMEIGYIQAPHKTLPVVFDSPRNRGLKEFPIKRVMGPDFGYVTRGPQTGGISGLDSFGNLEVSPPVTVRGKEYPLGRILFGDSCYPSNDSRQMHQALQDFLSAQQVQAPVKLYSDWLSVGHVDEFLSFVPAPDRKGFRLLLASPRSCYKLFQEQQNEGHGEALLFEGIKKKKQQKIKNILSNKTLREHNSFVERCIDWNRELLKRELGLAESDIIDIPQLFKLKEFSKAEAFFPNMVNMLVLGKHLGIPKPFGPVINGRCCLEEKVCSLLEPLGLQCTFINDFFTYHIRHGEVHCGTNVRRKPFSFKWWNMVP

Turning to `Cn1c(-c2cc3cccnc3n2CC2CC2)nc2cc(C(=O)N3C4CCC3CC(N)C4)ccc21` (stereo not shown) [Compound I-47], the IC50 is, setting by setting: under setting [1], > 100 µM; (read-out: hPAD4 RFMS IC50) > 10 µM.
Taken in the same sequence, the figures for `CCn1c(-c2nc3cc(C(=O)N4CC[C@@H]5CCN[C@@H]5C4)cc(OC)c3n2C)cc2cccnc21` (single isomer, unassigned) [Compound I-3] were 1 to 10 µM and 1 to 5 µM.
The like results for `COc1cc(C(=O)N2CC[C@@H]3CCN[C@@H]3C2)cc2nc(-c3cc4cncnc4n3CC3CC3)n(C)c12` [Compound I-4, 5-[(3aS,7aS)-octahydro-1H-pyrrolo[2,3-c]pyridine-6-carbonyl]-2-[7-(cyclopropylmethyl)-7H-pyrrolo[2,3-d]pyrimidin-6-yl]-7-methoxy-1-methyl-1H-1,3-benzodiazole] were, in that order, 10 to 100 µM and > 10 µM.
For the compound `Cn1c(-c2cc3cccnc3n2CC2CC2)nc2cc(C(=O)N3CCC[C@H]4NCC[C@H]43)ccc21` [Compound I-60], the IC50 reads like this: under setting [1], 10 to 100 µM; (read-out: hPAD4 RFMS IC50) > 10 µM.
Taken in the same sequence, the figures for `Cn1c(-c2cc3cccnc3n2CC2CC2)nc2cc(C(=O)N3C4CCC(N)C3CC4)ccc21` (stereo not shown) [Compound I-63] were 10 to 100 µM and > 10 µM.
As to `COc1cc(C(=O)N2C[C@H]3CC[C@@H]2[C@@H]3N)cc2nc(-c3cc4cc(NCC5CC5)ccc4n3CC3CC3)n(C)c12` [Compound I-372], the “hPAD4 RFMS pIC50” value (pIC50=−log(IC50)) is listed as “G/H”. Under “read-out: hPAD4 RFMS IC50”, the IC50 was 1 to 5 µM.
For the compound `COc1cc(C(=O)N2C[C@H]3CCC2[C@H]3N)cc2nc(-c3cc4ccc(C5=Cc6ccccc6C5)cc4n3CC3CC3)n(C)c12` [Compound I-368], the IC50 runs as follows: under setting [1], < 1 µM; (read-out: hPAD4 RFMS IC50) < 1 µM.
In the case of `COc1cc(C(=O)N2C[C@H]3C[C@H](OC)[C@@H]2[C@@H]3N)cc2nc(-c3cc4cccnc4n3CC3CC3)n(C)c12` [Compound I-167, (1 S,4R,6S,7R)-2-{2-[1-(Cyclopropylmethyl)-1H-pyrrolo[2,3-b]pyridin-2-yl]-7-methoxy-1-methyl-1H-1,3-benzodiazole-5-carbonyl}-6-methoxy-2-azabicyclo[2.2.1]heptan-7-amine], the IC50 was 1 to 10 µM under setting [1] and 1 to 5 µM (read-out: hPAD4 RFMS IC50).
Taken in the same sequence, the figures for `COc1cc(C(=O)N2C[C@H]3CCC2[C@H]3N)cc2nc(-c3cc4ccc(/C=C/C5CC5)cc4n3CC3CC3)n(C)c12` [Compound I-363] were < 1 µM and < 1 µM.
Consider `Cn1c(-c2cc3ccccc3n2CC2CC2)nc2cc(C(=O)N3CC[C@@H]4CCN[C@@H]4C3)ccc21` [Compound I-2], for which the IC50 was 10 to 100 µM under setting [1] and > 10 µM (read-out: hPAD4 RFMS IC50).
Taken in the same sequence, the figures for `Cn1c(-c2cc3cccnc3n2CC2CC2)nc2cc(C(=O)N3CCC4(CCCN4)C3)ccc21` (stereo not shown) [Compound I-39] were 10 to 100 µM and > 10 µM.
Consider `COc1cc(C(=O)N2C[C@H]3CC[C@@H]2[C@@H]3N)cc2nc(-c3cc4cc(C5=Cc6ccccc6C5)ccc4n3CC3CC3)n(C)c12` [Compound I-362], for which the IC50 is < 1 µM under setting [1] and < 1 µM (read-out: hPAD4 RFMS IC50).
Turning to `COc1cc(C(=O)N2C[C@H]3CC[C@H]2[C@H]3N)cc2nc(-c3cc4cc(NCCC5CC5)ccc4n3CC3CC3)n(C)c12` [Compound I-374, ((1S,4R)-7-amino-2-azabicyclo[2.2.1]heptan-2-yl)(2-(5-((2-cyclopropylethyl)amino)-1-(cyclopropylmethyl)-1H-indol-2-yl)-7-methoxy-1-methyl-1H-benzo[d]imidazol-5-yl)methanone], the IC50 under setting [1] was < 1 µM and the IC50 (read-out: hPAD4 RFMS IC50) is < 1 µM.
Turning to `Cn1c(-c2cc3cccnc3n2CC2CC2)nc2cc(C(=O)N3CCCC4NCCCC43)ccc21` (stereo not shown) [Compound I-53], the IC50 is > 100 µM under setting [1] and > 10 µM (read-out: hPAD4 RFMS IC50).
For the compound `COc1cc(C(=O)N2C[C@H]3CCC2[C@H]3N)cc2nc(-c3cc4ccc(/C=C/c5ccccc5)cc4n3CC3CC3)n(C)c12` [Compound I-365], the IC50 under setting [1] was < 1 µM and the IC50 (read-out: hPAD4 RFMS IC50) was < 1 µM.
For `COc1ccc2cc(-c3nc4cc(C(=O)N5C[C@@H](N)C[C@H](F)C5)cc(OC)c4n3C)n(CC3CC3)c2n1` [Compound I-356, ((3S,5S)-3-amino-5-fluoropiperidin-1-yl)(2-(1-(cyclopropylmethyl)-6-methoxy-1H-pyrrolo[2,3-b]pyridin-2-yl)-7-methoxy-1-methyl-1H-benzo[d]imidazol-5-yl)methanone], the IC50 was < 1 µM under setting [1] and < 1 µM (read-out: hPAD4 RFMS IC50).
For `COc1cc(C(=O)N2CCC3CCNC3C2)cc2nc(-c3cc4cncnc4n3CC3CC3)n(C)c12` (stereo not shown) [Compound I-15, 2-[7-(cyclopropylmethyl)-7H-pyrrolo[2,3-d]pyrimidin-6-yl]-7-methoxy-1-methyl-5-{octahydro-1H-pyrrolo[2,3-c]pyridine-6-carbonyl}-1H-1,3-benzodiazole], the IC50 under setting [1] was 1 to 10 µM and the IC50 (read-out: hPAD4 RFMS IC50) lay in the range of 5 to 10 µM.
Turning to `Cn1c(-c2cc3cccnc3n2CC2CC2)nc2cc(C(=O)N3CCCC4(CCNC4)C3)ccc21` (stereo not shown) [Compound I-46], the IC50 by setting is: under setting [1], > 100 µM; (read-out: hPAD4 RFMS IC50) > 10 µM.
Turning to `CCn1c(-c2nc3cc(C(=O)N4CC[C@H]5CCN[C@H]5C4)ccc3n2C)cc2cccnc21` [Compound I-1], the IC50 is, setting by setting: under setting [1], 10 to 100 µM; (read-out: hPAD4 RFMS IC50) > 10 µM.
Turning to `COc1cc(C(=O)N2C[C@H]3CCC2[C@H]3N)cc2nc(-c3cc4cc(/C=C/c5ccccc5)ccc4n3CC3CC3)n(C)c12` [Compound I-359], the IC50 is < 1 µM under setting [1] and < 1 µM (read-out: hPAD4 RFMS IC50).
For the compound `Cn1c(-c2cc3cccnc3n2CC2CC2)nc2cc(C(=O)N3CCC4CNC4C3)ccc21` (stereo not shown) [Compound I-40], the IC50 under setting [1] is 10 to 100 µM and the IC50 (read-out: hPAD4 RFMS IC50) was > 10 µM.
Taken in the same sequence, the figures for `Cn1c(-c2cc3cccnc3n2CC2CC2)nc2cc(C(=O)N3CCCC4(CCCN4)C3)ccc21` (stereo not shown) [Compound I-41] were 10 to 100 µM and > 10 µM.
Take `COc1cc(C(=O)N2C[C@H]3CCC2[C@H]3N)cc2nc(-c3cc4cc(/C=C/CCc5ccccc5)ccc4n3CC3CC3)n(C)c12` [Compound I-360]: the IC50 under setting [1] was < 1 µM and the IC50 (read-out: hPAD4 RFMS IC50) was < 1 µM.
Regarding `COc1cc(C(=O)N2C[C@H]3CC[C@@H]2[C@@H]3N)cc2nc(-c3cc4ccc(NCCC5CC5)cc4n3CC3CC3)n(C)c12` [Compound I-375], the IC50 was < 1 µM under setting [1] and < 1 µM (read-out: hPAD4 RFMS IC50).
Consider `COc1cc(C(=O)N2C[C@H]3CCC2[C@H]3N)cc2nc(-c3cc4cc(/C=C/C5CC5)ccc4n3CC3CC3)n(C)c12` [Compound I-357], for which the IC50 is < 1 µM under setting [1] and < 1 µM (read-out: hPAD4 RFMS IC50).
Regarding `CCn1c(-c2nc3cc(C(=O)N4CCC5CCNC5C4)ccc3n2C)cc2cccnc21` (stereo not shown) [Compound I-16], the IC50 was 1 to 10 µM under setting [1] and 5 to 10 µM (read-out: hPAD4 RFMS IC50).
The like results for `Cn1c(-c2cc3cccnc3n2CC2CC2)nc2cc(C(=O)N3CCC(F)C(N)C3)ccc21` (stereo not shown) [Compound I-49] were, in that order, 1 to 10 µM and 5 to 10 µM.
Turning to `Cn1c(-c2cc3cccnc3n2CC2CC2)nc2cc(C(=O)N3CCCC4(CCN4)C3)ccc21` (stereo not shown) [Compound I-42], the IC50 under setting [1] was > 100 µM and the IC50 (read-out: hPAD4 RFMS IC50) is > 10 µM.
Take `Cn1c(-c2cc3ccccc3n2CC2CC2)nc2cc(C(=O)N3CC[C@H]4CCN[C@H]4C3)ccc21` [Compound I-7]: the IC50 reads like this: under setting [1], < 1 µM; (read-out: hPAD4 RFMS IC50) < 1 µM.
Turning to `Cn1c(-c2cc3cccnc3n2CC2CC2)nc2cc(C(=O)N3CCC4CCNC4C3)ccc21` (stereo not shown) [Compound I-6], the IC50 under setting [1] was 1 to 10 µM and the IC50 (read-out: hPAD4 RFMS IC50) was in the range of 1 to 5 µM.
The like results for `COc1cc(C(=O)N2C[C@H]3CCC2[C@H]3N)cc2nc(-c3cc4ccc(/C=C/CC(C)C)cc4n3CC3CC3)n(C)c12` [Compound I-364] were, in that order, < 1 µM and < 1 µM.
Consider `COc1cc(C(=O)N2C[C@H]3CCC2[C@H]3N)cc2nc(-c3cc4cc(/C=C/CC(C)C)ccc4n3CC3CC3)n(C)c12` [Compound I-358], for which the IC50 reads like this: under setting [1], < 1 µM; (read-out: hPAD4 RFMS IC50) < 1 µM.
Turning to `COc1ccc2cc(-c3nc4cc(C(=O)N5C[C@H]6CC[C@@H]5[C@@H]6N)ccc4n3C)n(CC3CC3)c2n1` [Compound I-353, ((1R,4R,7R)-7-amino-2-azabicyclo[2.2.1]heptan-2-yl)(2-(1-(cyclopropylmethyl)-6-methoxy-1H-pyrrolo[2,3-b]pyridin-2-yl)-1-methyl-1H-benzo[d]imidazol-5-yl)methanone], the IC50 by setting is: under setting [1], < 1 µM; (read-out: hPAD4 RFMS IC50) < 1 µM.
On to `COc1cc(C(=O)N2CC[C@@H](F)[C@H](N)C2)cc2nc(-c3cc4cccnc4n3CC3CC3)n(C)c12` [Compound I-57], for which the IC50 reads like this: under setting [1], 1 to 10 µM; (read-out: hPAD4 RFMS IC50) 1 to 5 µM.
The like results for `COc1cc(C(=O)N2C[C@H]3CC[C@@H]2[C@@H]3N)cc2nc(-c3cc4ccc(N(C)CCC5CC5)cc4n3CC3CC3)n(C)c12` [Compound I-376] were, in that order, < 1 µM and < 1 µM.
With `COc1cc(C(=O)N2CC[C@H](F)[C@@H](N)C2)cc2nc(-c3cc4cccnc4n3CC3CC3)n(C)c12` [Compound I-58], the IC50 by setting is: under setting [1], 10 to 100 µM; (read-out: hPAD4 RFMS IC50) > 10 µM.
As to `COc1ccc2cc(-c3nc4cc(C(=O)N5C[C@H](N)CC[C@@H]5C)ccc4n3C)n(CC3CC3)c2n1` [Compound I-352, ((2S,5R)-5-amino-2-methylpiperidin-1-yl)(2-(1-(cyclopropylmethyl)-6-methoxy-1H-pyrrolo[2,3-b]pyridin-2-yl)-1-methyl-1H-benzo[d]imidazol-5-yl)methanone], the IC50 was < 1 µM under setting [1] and < 1 µM (read-out: hPAD4 RFMS IC50).
In the case of `Cn1c(-c2cc3cccnc3n2CC2CC2)nc2cc(C(=O)N3CC(N)CC(F)(F)C3)ccc21` (stereo not shown) [Compound I-51], the IC50 under setting [1] was 10 to 100 µM and the IC50 (read-out: hPAD4 RFMS IC50) is > 10 µM.
